Experimental data: US20230091225A1, “Bifunctional chimeric heterocyclic compounds for targeted degradation of androgen receptors and use thereof” (HINOVA PHARMACEUTICALS INC., priority 2019, published 2023)
pIC50: −log10 of the molar value. Like-named read-outs stand apart in the source and are kept apart here.

Experiments:
LNCaP/AR cells = assay: Inhibition of proliferation of LNCaP/AR prostate cancer cells (CCK-8); type: cell-based
androgen receptor (AR) = biological target: T1, androgen receptor (AR) (Homo sapiens, UniProt P10275); assay: Degradation of androgen receptor (AR) protein in VCaP cells by ELISA; type: cell-based; conditions: for inhibition at 0.1 µM: read-out: % degradation
T1 sequence (P10275 1-920): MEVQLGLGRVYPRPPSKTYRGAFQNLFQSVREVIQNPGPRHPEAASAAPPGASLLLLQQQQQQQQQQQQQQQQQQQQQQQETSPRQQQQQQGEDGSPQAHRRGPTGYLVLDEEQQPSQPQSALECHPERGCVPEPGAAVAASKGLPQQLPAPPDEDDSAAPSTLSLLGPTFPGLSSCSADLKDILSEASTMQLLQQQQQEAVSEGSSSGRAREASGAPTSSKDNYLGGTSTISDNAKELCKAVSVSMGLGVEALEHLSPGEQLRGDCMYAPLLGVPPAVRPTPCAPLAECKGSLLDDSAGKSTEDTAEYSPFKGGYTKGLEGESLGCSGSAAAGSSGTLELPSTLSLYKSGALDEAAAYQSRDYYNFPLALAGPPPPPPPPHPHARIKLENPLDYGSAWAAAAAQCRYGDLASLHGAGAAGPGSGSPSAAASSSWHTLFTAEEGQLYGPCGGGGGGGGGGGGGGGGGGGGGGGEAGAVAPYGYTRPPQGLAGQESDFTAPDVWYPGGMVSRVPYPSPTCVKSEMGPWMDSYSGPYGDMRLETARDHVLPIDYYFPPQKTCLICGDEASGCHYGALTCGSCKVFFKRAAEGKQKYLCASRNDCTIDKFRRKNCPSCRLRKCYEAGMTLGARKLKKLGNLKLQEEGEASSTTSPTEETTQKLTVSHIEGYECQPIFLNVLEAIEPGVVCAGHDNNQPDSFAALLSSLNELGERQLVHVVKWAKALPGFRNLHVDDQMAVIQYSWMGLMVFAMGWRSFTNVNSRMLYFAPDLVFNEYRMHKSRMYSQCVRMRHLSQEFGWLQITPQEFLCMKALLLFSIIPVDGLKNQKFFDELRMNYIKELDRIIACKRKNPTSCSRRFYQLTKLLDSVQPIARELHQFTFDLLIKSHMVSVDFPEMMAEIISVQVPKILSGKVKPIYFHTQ

[1] = 144 h, proliferation of LNCap/AR cells, 6 days, CCK-8, read-out: IC50
[2] = percentage of degraded AR at 100 nM, VCaP cells, 16 h, ELISA
[3] = proliferation of LNCap/AR cells, 6 days, CCK-8, read-out: IC50

Row | Compound | pIC50 (LNCaP/AR cells; [1]) | inhibition at 0.1 µM (androgen receptor (AR); [2]) [%] | pIC50 (LNCaP/AR cells; [3]) | pIC50 (LNCaP/AR cells; LNCaP/AR, 144 h) | also measured
1 | CC(=O)O[C@@H]1C[C@@H](C(=O)N[C@@H](C)c2ccc(-c3scnc3C)cc2)N(C(=O)[C@@H](NC(=O)COCCCCCNc2ccc(NC(=O)N[C@H]3C(C)(C)[C@H](Oc4ccc(C#N)c(Cl)c4)C3(C)C)cc2)C(C)(C)C)C1 [Compound 1, (3R,5S)-1-((S)-2-(2-((5-((4-(3-((1R,3R)-3-(3-chloro-4-cyanophenoxy)-2,2,4,4-tetramethylcyclobutyl)ureido)phenyl)amino)pentyl)oxy)acetylamino)-3,3-dimethylbutyryl)-5-(((S)-1-(4-(4-methylthiazol-5-yl))phenyl)ethyl)carbamoyl) pyrrolidin-3-yl acetate] | < 6.00 | < 25 | – | – | –
2 | Cc1ncsc1-c1ccc([C@H](C)NC(=O)C2C[C@@H](O)CN2C(=O)[C@@H](NC(=O)COCCN2CCN(c3ccc4c(c3)CN([C@H]3C(C)(C)[C@H](Oc5ccc(C#N)c(Cl)c5)C3(C)C)C4=O)CC2)C(C)(C)C)cc1 (stereo partly drawn) [Compound 3, (2S,4R)-1-((S)-2-(2-(2-(4-(2-((1R,3R)-3-(3-chloro-4-cyanophenoxy)-2,2,4,4-tetramethylcyclobutyl)-1-oxoisoindolin-5-yl)piperazin-1-yl)ethoxy)acetylamino)-3,3-dimethylbutyryl)-4-hydroxy-N-((S)-1-(4-(4-methylthiazol-5-yl)phenyl)ethyl)pyrrolidine-2-carboxamide] | 6.30 to 7.00 | 50 to 79 | – | – | –
3 | CC(=O)O[C@@H]1C[C@H](C(=O)N[C@@H](C)c2ccc(-c3scnc3C)cc2)N(C(=O)[C@@H](NC(=O)COCCCCC#Cc2ccc3c(c2)C(=O)N(C2C(C)(C)C(Oc4ccc(C#N)c(Cl)c4)C2(C)C)C3)C(C)(C)C)C1 (stereo partly drawn) [Compound 4, (3R,5R)-1-((S)-2-(2-((6-(2-((1R,3R)-3-(3-chloro-4-cyanophenoxy)-2,2,4,4-tetramethylcyclobutyl)-3-oxoisoindolin-5-yl)hex-5-yn-1-yl)oxy)acetylamino)-3,3-dimethylbutyryl)-5-(((S)-1-(4-(4-methylthiazol-5-yl)phenyl)ethyl)carbamoyl) pyrrolidin-3-yl acetate] | – | – | > 7.00 | – | % degradation (androgen receptor (AR)): C (key: A: >80%; B: 79%-50%; C: 49%-25%; D: <25%)
4 | CC(=O)O[C@@H]1C[C@@H](C(=O)N[C@@H](C)c2ccc(-c3scnc3C)cc2)N(C(=O)[C@@H](NC(=O)COCCCCCNc2ccc3c(c2)C(=O)N([C@H]2C(C)(C)[C@H](Oc4ccc(C#N)c(Cl)c4)C2(C)C)C3)C(C)(C)C)C1 [Compound 6, (3R,5S)-1-((S)-2-(2-((5-((2-((1R,3R)-3-(3-chloro-4-cyanophenoxy)-2,2,4,4-tetramethylcyclobutyl)-3-oxoisoindolin-5-yl)amino)pentyl)oxy)acetylamino)-3,3-dimethylbutyryl)-5-(((S)-1-(4-(4-methylthiazol-5)-yl)phenyl)ethyl)carbamoyl) pyrrolidin-3-yl acetate] | – | 50 to 79 | – | > 7.00 | –
5 | Cc1ncsc1-c1ccc([C@H](C)NC(=O)[C@@H]2C[C@@H](O)CN2C(=O)[C@@H](NC(=O)COCCCCCNc2ccc3c(c2)C(=O)N([C@H]2C(C)(C)[C@H](Oc4ccc(C#N)c(Cl)c4)C2(C)C)C3)C(C)(C)C)cc1 [Compound 7, (2S,4R)-1-((S)-2-(2-((5-((2-((1R,3R)-3-(3-chloro-4-cyanophenoxy)-2,2,4,4-tetramethylcyclobutyl)-3-oxoisoindolin-5-yl)amino)pentyl)oxy)acetylamino)-3,3-dimethylbutyryl)-4-hydroxy-N-((S)-1-(4-(4-methylthiazol-5-yl)phenyl)ethyl) pyrrolidine-2-carboxamide] | > 7.00 | 50 to 79 | – | – | –
6 | Cc1ncsc1-c1ccc(C2(NC(=O)[C@H]3C[C@@H](O)CN3C(=O)[C@@H](NC(=O)COCCCCC#Cc3ccc(C(=O)N[C@H]4C(C)(C)[C@H](Oc5ccc(C#N)c(Br)c5)C4(C)C)cc3)C(C)(C)C)CC2)cc1 [Compound 9, (2R,4R)-1-((S)-2-(2-((6-(4-(((1R,3R)-3-(3-bromo-4-cyanophenoxy)-2,2,4,4-tetramethylcyclobutyl)carbamoyl)phenyl)hex-5-yn-1-yl)oxy)acetylamino)-3,3-dimethylbutyryl)-4-hydroxy-N-(1-(4-(4-methyl-5-yl)phenyl)cyclopropyl) pyrrolidine-2-carboxamide] | > 7.00 | > 80 | – | – | –
7 | CC(=O)O[C@@H]1C[C@@H](C(=O)N[C@@H](C)c2ccc(-c3scnc3C)cc2)N(C(=O)[C@@H](NC(=O)Cn2cc(C#Cc3ccc4c(c3)CN([C@H]3C(C)(C)[C@H](Oc5ccc(C#N)c(Cl)c5)C3(C)C)C4=O)cn2)C(C)(C)C)C1 [Compound 10, (3R,5S)-1-((S)-2-(2-(4-((2-((1r,3r)-3-(3-chloro-4-cyanophenoxy)-2,2,4,4-tetramethylcyclobutyl)-1-oxoisoindolin-5-ylethynyl)-1H-pyrazol-1-yl)acetylamino)-3,3-dimethylbutyryl)-5-((((S)-1-(4-(4-methylthiazol-5-yl)phenyl)ethylcarbamoyl)pyrrolidin-3-yl acetate] | – | – | 6.30 to 7.00 | – | % degradation (androgen receptor (AR)): C (key: A: >80%; B: 79%-50%; C: 49%-25%; D: <25%)
8 | Cc1ncsc1-c1ccc([C@H](C)NC(=O)[C@@H]2C[C@@H](O)CN2C(=O)[C@@H](NC(=O)Cn2cc(C#Cc3ccc4c(c3)CN(C3C(C)(C)C(Oc5ccc(C#N)c(Cl)c5)C3(C)C)C4=O)cn2)C(C)(C)C)cc1 (some centres unmarked) [Compound 11] | – | – | > 7.00 | – | % degradation (androgen receptor (AR); [2]): B (79%-50%)
9 | CC(=O)O[C@@H]1C[C@@H](C(=O)N[C@@H](C)c2ccc(-c3scnc3C)cc2)N(C(=O)[C@@H](NC(=O)COCCOCC#Cc2ccc3c(c2)CN([C@H]2C(C)(C)[C@H](Oc4ccc(C#N)c(Cl)c4)C2(C)C)C3=O)C(C)(C)C)C1 [Compound 12, (3R,5S)-1-((S)-2-(2-(2-((3-(2-((1r,3r)-3-(3-chloro-4-cyanophenoxy)-2,2,4,4-tetramethylcyclobutyl)-1-oxoisoindolin-5-yl)prop-2-yn-1-yl)oxy)propoxy)acetylamino)-3,3-dimethylbutyryl)-5-((((S)-1-acetic acid (4-(4-methylthiazol-5-yl)phenyl)ethyl)carbamoyl)pyrrolidin-3-yl acetate] | – | 50 to 79 | – | > 7.00 | –
10 | Cc1ncsc1-c1ccc([C@H](C)NC(=O)[C@@H]2C[C@@H](O)CN2C(=O)[C@@H](NC(=O)COCCOCC#Cc2ccc3c(c2)CN([C@H]2C(C)(C)[C@H](Oc4ccc(C#N)c(Cl)c4)C2(C)C)C3=O)C(C)(C)C)cc1 [Compound 13] | – | – | > 7.00 | – | % degradation (androgen receptor (AR); [2]): B (79%-50%)
11 | CC(=O)O[C@@H]1C[C@@H](C(=O)N[C@@H](C)c2ccc(-c3scnc3C)cc2)N(C(=O)[C@@H](NC(=O)COCC(C)OCC#Cc2ccc3c(c2)CN([C@H]2C(C)(C)[C@H](Oc4ccc(C#N)c(Cl)c4)C2(C)C)C3=O)C(C)(C)C)C1 (stereo partly drawn) [Compound 14, (3R,5S)-1-((2S)-2-(2-(2-((3-(2-((1r,3r)-3-(3-chloro-4-cyanophenoxy)-2,2,4,4-tetramethylcyclobutyl)-1-oxoisoindol-5-yl)prop-2-yn-1-yl)oxy)propoxy)acetylamino)-3,3-dimethylbutyryl)-5-((((S)-1-acetic acid (4-(4-methylthiazol-5-yl)phenyl)ethyl)carbamoyl)pyrrolidin-3-yl acetate] | – | 50 to 79 | – | > 7.00 | –
12 | Cc1ncsc1-c1ccc([C@H](C)NC(=O)[C@@H]2C[C@@H](O)CN2C(=O)[C@@H](NC(=O)COCC(C)OCC#Cc2ccc3c(c2)CN([C@H]2C(C)(C)[C@H](Oc4ccc(C#N)c(Cl)c4)C2(C)C)C3=O)C(C)(C)C)cc1 (some centres unmarked) [Compound 15] | > 7.00 | 25 to 49 | – | – | –
13 | CC(=O)O[C@@H]1C[C@@H](C(=O)N[C@@H](C)c2ccc(-c3scnc3C)cc2)N(C(=O)[C@@H](NC(=O)CN2CCC(CN3CCN(c4ccc(C(=O)NC5C[C@@]6(C)O[C@]5(C)[C@@H]5C(=O)N(c7ccc(C#N)c(Cl)c7)C(=O)[C@@H]56)cn4)CC3)CC2)C(C)(C)C)C1 (stereo partly drawn) [Compound 17, (3R,5S)-1-((2S)-2-(2-(4-((4-(5-(((3aR,4R,7R,7aS)-2-(3-chloro-4-benzonitrile)-4,7-dimethyl-1,3-dioxooctahydro-1H-4,7-epoxyisoindolin-5-yl)carbamoyl) (pyridin-2-yl)piperazin-1-yl)methyl)piperidin-1-yl)acetylamino)-3,3-dimethylbutyryl)-5-(((S)-1-(4-(4-methylthiazol-5-yl)phenyl)ethyl)carbamoyl)pyrrolidin-3-yl acetate] | – | – | – | > 7.00 | inhibition at 0.1 µM (androgen receptor (AR); VCaP, 16 h): 50 to 79%
